Assay results from patent US5602134A, “Positive inotropic and lusitropic pyrroloquinolinone derivatives” (Janssen Pharmaceutica N.V., priority 1993, dated 1997).
Where a name gives a salt, the structure may show the parent alone. Read-outs that look alike come from different tables or passages of the source.

Assays:
[1] = biological target: T1, canine heart phosphodiesterase PDE III (Canis lupus familiaris, UniProt A0A8I3NYE0); test: Inhibition of Phosphodiesterase Type III (PDE III); type: biochemical; details: 10 min at 37° C., pH 7.1
T1 construct: canine heart phosphodiesterase PDE III; from tissue; host or cells: canine heart
T1 sequence (A0A8I3NYE0 1-1135): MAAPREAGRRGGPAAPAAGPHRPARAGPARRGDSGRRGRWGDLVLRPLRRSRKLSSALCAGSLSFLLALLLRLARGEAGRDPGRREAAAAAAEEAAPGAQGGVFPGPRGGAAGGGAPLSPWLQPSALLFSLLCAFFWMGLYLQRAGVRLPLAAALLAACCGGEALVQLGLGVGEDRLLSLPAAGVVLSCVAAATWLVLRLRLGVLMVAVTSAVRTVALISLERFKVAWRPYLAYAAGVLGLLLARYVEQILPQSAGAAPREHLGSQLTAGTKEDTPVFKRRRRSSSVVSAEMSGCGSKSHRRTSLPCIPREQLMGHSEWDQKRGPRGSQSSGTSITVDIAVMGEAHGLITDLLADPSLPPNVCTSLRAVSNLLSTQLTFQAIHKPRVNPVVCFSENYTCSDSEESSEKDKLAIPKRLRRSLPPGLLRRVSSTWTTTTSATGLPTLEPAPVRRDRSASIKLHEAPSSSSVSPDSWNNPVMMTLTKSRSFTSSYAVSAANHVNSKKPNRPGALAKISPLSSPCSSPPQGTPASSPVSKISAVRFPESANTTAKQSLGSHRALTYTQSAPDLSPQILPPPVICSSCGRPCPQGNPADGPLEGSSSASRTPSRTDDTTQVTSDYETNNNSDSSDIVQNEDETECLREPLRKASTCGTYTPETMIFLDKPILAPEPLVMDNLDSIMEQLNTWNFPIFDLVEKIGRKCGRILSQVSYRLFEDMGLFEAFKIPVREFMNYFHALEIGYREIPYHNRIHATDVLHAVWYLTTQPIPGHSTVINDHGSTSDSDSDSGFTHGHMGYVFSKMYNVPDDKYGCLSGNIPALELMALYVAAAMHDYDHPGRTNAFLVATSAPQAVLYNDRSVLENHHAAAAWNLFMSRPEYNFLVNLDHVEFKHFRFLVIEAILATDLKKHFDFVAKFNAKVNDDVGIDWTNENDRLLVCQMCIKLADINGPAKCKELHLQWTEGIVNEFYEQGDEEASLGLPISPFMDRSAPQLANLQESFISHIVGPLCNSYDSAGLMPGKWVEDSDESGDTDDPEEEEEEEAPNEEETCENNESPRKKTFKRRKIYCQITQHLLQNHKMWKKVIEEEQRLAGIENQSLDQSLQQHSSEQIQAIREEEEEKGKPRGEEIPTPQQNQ
Description: The positive inotropic and lusitropic effect of the instant compounds was assessed by an in vitro assay system to detect inhibiting effect on the phosphodiesterase type III and in an in vivo experiment in closed-chest anesthetized dogs by monitoring cardiac and haemodynamic effects of an intravenous bolus injection of the instant compounds. […] Inhibition of Phosphodiesterase Type III (PDE III) […] For every preparation,time- and concentration-dependent changes in cyclic nucleotide hydrolysis were measured. […] The enzymatic activity was started by addition of substrate and stopped 10 min later after the tubes were transferred to a waterbath at 100° C. for 40 sec. After the tubes had been cooled to room temperature, alkaline phosphatase (0.25 g/ml) was added and the mixture was left at 37° C. for 20 min. The mixture was subsequently applied to a 1-ml DEAE-Sephadex A-25 column and washed twice with 3 ml of 20 mM Tris-HCl at pH 7.4. The ^3 H-labeled reaction products in the eluate were quantified by liquid scintillation counting. The inhibiting effect of the present compounds on canine heart phosphodiesterase PDE III was measured at different concentrations of the instant compounds. The IC50 values were calculated graphically from the thus obtained inhibition values.

Beagle dogs = test: Positive inotropy and lusitropy, blood pressure and heart rate in anaesthetized closed-chest dogs; type: in vivo, Beagle dog; details: Canis lupus familiaris, iv, 5 min, 5 min after i.v. administration, n = 3, relative to premedication values
Description: The positive inotropic and lusitropic effect of the instant compounds was assessed by an in vitro assay system to detect inhibiting effect on the phosphodiesterase type III and in an in vivo experiment in closed-chest anesthetized dogs by monitoring cardiac and haemodynamic effects of an intravenous bolus injection of the instant compounds.
Positive Inotropy and Lusitropy, Blood Pressure and Heart Rate in Dogs
The test compound was dissolved in an aqueous glucose solution in a concentration of 1 mg.ml^-1. The experiments were performed on 3 Beagle dogs of either sex and varying age, ranging in body weight from 11 to 18 kg (median 13 kg). The animals were intravenously anaesthetized with a mixture of 0.015 mg.kg^-1 scopolamine and 0.05 mg.kg^-1 lofentanil. The animals were intubated with a cuffed endotracheal tube. Intermittent positive pressure ventilation was performed with a mixture of pressurized air and oxygen (60/40), using a volume-controlled ventilator (Siemens Elema). In the control period the CO2 concentration in the expired air (ET CO2), as determined with a capnograph (Gould Godart), was kept at 5 vol % by adjustment of the respiratory volume (resp. rate=20 breaths.min^-1). A continuous intravenous infusion of 0.5 mg.kg^-1.h^-1 of etomidate was started immediately after induction. Body temperature was monitored with a thermistor positioned in the pulmonary artery. To prevent blood clotting heparin, 1000 IU.kg^-1i.v., was administered.
The electrocardiogram (ECG) was derived from limb leads (standard lead 2). Left ventricular (LVP) and ascending aortic blood pressure (AoP) were measured by retrograde catheterisation via the femoral arteries with high fidelity cathetertip micromanometers (Honeywell). The other femoral vein was cannulated for injection of saline at room temperature into the right atrium and for injection of the test compound. Peak ascending aortic blood flow velocity was measured through the fight carotid artery with an electomagnetic catheter-tip probe connected to a square wave electomagnetic flow meter (Janssen Scientific Instruments). The following variables--inter alia--were calculated on-line, usually at 1 rain intervals: heart rate (HR), diastolic (AoPd) aortic blood pressure, left ventricular end-diastolic pressure (LVEDP), the maximum positive and maximum negative rate of change of isovolumic LVP (LV dp/dtmax and min, respectively), the maximum positive first derivative divided by the actually developed pressure in the left ventricle (LV dp/dtmax /Pd). The time constant (T) of relaxation was measured with the use of an exponential analysis that also estimated the asymptote. After a stabilization period, the animals were treated by intravenous bolus injection of the test compound at 30 min. interval in cumulative doses of 0.0005, 0.001, 0.004, 0.016, 0.064, 0.125 and 0.25 mg/kg.

[2] = read-out: Calculated dose producing a 15% reduction in diastolic aortic blood pressure (AoPD)
[3] = read-out: Calculated dose producing a 15% reduction of total systemic vascular resistance (TSR)
[4] = read-out: Calculated dose producing a 30% increase in cardiac contractility (LV dp/dt max)
[5] = read-out: Calculated dose producing a 30% increase in heart rate (HR)

`CCOC(=O)CCCOc1ccc2nc3c(cc2c1)CC(=O)N3` [Compound 1, ethyl 4-[(2,3-dihydro-2-oxo-1H-pyrrolo[2,3-b]quinolin-6-yl]oxy]butanoate] was tested, and the IC50 [1] was 0.29 µM.

`CCOC(=O)CCCCOc1ccc2nc3c(cc2c1)CC(=O)N3` [Compound 2, ethyl 5-[(2,3-dihydro-2-oxo-1H-pyrrolo[2,3-b]quinolin-6-yl]oxy]pentanoate] was tested, and the IC50 [1] was 0.062 µM.

`O=C(O)CCCOc1ccc2nc3c(cc2c1)CC(=O)N3` [Compound 3, 4-[(2,3-dihydro-2-oxo-1H-pyrrolo[2,3-b]quinolin-6-yl)oxy]butanoic acid] was tested, and the IC50 [1] was 0.33 µM.

`O=C1Cc2cc3cc(OCCCC(=O)N4CCN(CC5CCCCC5)CC4)ccc3nc2N1` [Compound 5, 1-(cyclohexylmethyl)-4-[4-[(2,3-dihydro-2-oxo-1H-pyrrolo[2,3-b]quinolin-6-yl)oxy]-1-oxobutyl]piperazine] was tested, and the IC50 [1] was 0.018 µM, the ED15 (Beagle dogs; [2]) was > 0.25 mg/kg and the ED15 (Beagle dogs; [3]) was 0.079 mg/kg. The ED30 (Beagle dogs; [4]) was 0.008 mg/kg and the ED30 (Beagle dogs; [5]) was 0.033 mg/kg.

`O=C1Cc2cc3cc(OCCCCC(=O)N4CCN(CC5CCCCC5)CC4)ccc3nc2N1` [Compound 6] was tested, and the IC50 [1] was 0.0024 µM.

`O=C1Cc2cc3cc(OCCCCC(=O)NC4CCN(Cc5ccccc5)CC4)ccc3nc2N1` [Compound 7] gave an IC50 [1] of 0.058 µM.

With `CN1CCC(N(C)C(=O)CCCOc2ccc3nc4c(cc3c2)CC(=O)N4)CC1` [Compound 8, 4-[(2,3-dihydro-2-oxo-1H-pyrrolo[2,3-b]quinolin-6-yl)oxy]-N-methyl-N-(1-methyl-4-piperidinyl)butanamide] the IC50 [1] was 0.3 µM.

`Cl.O=C1Cc2cc3cc(OCCCCC(=O)N4CCN(CC5CCCCC5)CC4)ccc3nc2N1` [Compound 15, 1-(cyclohexylmethyl)-4-[5-[(2,3-dihydro-2-oxo-1H-pyrrolo[2,3-b]-quinolin-6-yl)oxy]-1-oxopentyl]piperazine monohydrochloride] showed an IC50 [1] of 0.0018 µM, an ED15 (Beagle dogs; [2]) of 0.015 mg/kg and an ED15 (Beagle dogs; [3]) of 0.003 mg/kg. It also gave an ED30 (Beagle dogs; [4]) of 0.002 mg/kg and an ED30 (Beagle dogs; [5]) of 0.028 mg/kg.

Work on `O=C1Cc2cc3cc(OCCCC(=O)N4CCN(CC5CCCCC5)CC4)ccc3nc2N1` [Compound 16, 1-(cyclohexylmethyl)-4-[4-[(2,3-dihydro-2-oxo-1H-pyrrolo[2,3-b]quinolin-6-yl)oxy]-1-oxobutyl]piperazine dihydrochloride ethanolate(1:1)] yielded an IC50 [1] of 0.027 µM.

For `CN(C(=O)CCCOc1ccc2nc3c(cc2c1)CC(=O)N3)C1CCCCC1` [Compound 17, N-cyclohexyl-4-[(2,3-dihydro-2-oxo-1H-pyrrolo[2,3-b]quinolin-6-yl)oxy]-N-methylbutanamide hemihydrate], the IC50 [1] was 0.0076 µM.
